In brackets after ≈: the same amount, converted by molar mass. Where two headings read alike, the source gives them in different places. Bridge positions count the residues as written; N and C are the ends. Square brackets hold non-standard residues; d marks the D form. Peptide text beside a SMILES is read from it. d(aIle) = CC[C@H](C)[C@@H](N)C(=O)O; dNMeF = CN[C@H](Cc1ccccc1)C(=O)O
Assays:
E.coli = type: cell-based, Escherichia coli; conditions: for MIC ratio Coli/Staph: ratio of E. coli MIC to S. aureus MIC
Protocol: (§1) This assay was used to determine the minimum concentration of a test compound (i.e., an antimicrobial peptide described herein) able to inhibit the growth of a bacterial strain of interest. This is a standard method for measuring and comparing the potency of peptide-based antibacterial agents (Steinberg et al., Antimicrobial Agents and Chemotherapy 1997, 41 (8) 1738 - 1742 and Wiegand et al., Nature Protocols 2008, 3, 163-175).
(§2) The MIC is reported in units of μg/mL.
(§3) Bacterial cultures were grown by inoculating Mueller-Hinton Broth (MHB) with 3 or 4 representative colony (typical size, color, and shape) from a bacterial strain grown on a LB agar plate. Inoculated liquid cultures were grown at 37° C. with moderate shaking (200-250 rpm) until bacteria produced a visibly turbid suspension. Bacterial inoculum was approximated by measuring the optical density at 600 nm (0D600) of the bacterial culture against a sterile MHB blank. Typically, OD600=0.10 corresponds to ˜1×10^8 cfu/mL for S.aureus and OD600 =0.15 corresponds to ˜1×10^8 cfu/mL for E.coli.
(§4) Test compounds were prepared as stock solutions in vehicle at a concentration 10 times the highest concentration to be tested for antibacterial activity (usually 320 μg/mL stock solutions). 2x serial dilutions in vehicle (at 10× the final test concentrations) of the test compounds were prepared from the test compound stock solutions in a non-binding 96 well plate.
(§5) In a sterile clear flat bottom 96 well plate, 15 μL of each test compound dilution was added to 135 μL of ˜5×10^5 cfu/mL bacterial culture. Each concentration was tested in duplicate. Each experiment contained positive control wells for bacterial growth (i.e., no test compound added to bacteria) and sterility controls wells (i.e., sterile MHB and no test compounds added). 96 well plates containing bacterial cultures and test compounds were incubated at 37° C. for 16-20 hours with shaking at 200 rpm.
(§6) After incubation, the MIC of each test compound was determined by measuring the OD600 of each well using a plate reader. Wells with OD600 >0.08 were considered to have bacterial growth and wells with OD600<0.08 were considered to have no bacterial growth. The lowest concentration of test agent able to inhibit bacterial growth (0D600<0.08 after 16-20 hours) was defined as the MIC.

S.aureus = type: cell-based, Staphylococcus aureus
Protocol: as §1, §2, §3, §4, §5, §6

S. aureus (14 isolates) = type: cell-based, Staphylococcus aureus; conditions: 20 h
Protocol: (§7) The broth microdilution susceptibility assay followed the procedure described by the Clinical and Laboratory Standards Institute (CLSI) in CLSI document M7-A10.
(§8) The following bacteria isolates were tested:
(§9) S.aureus, S.epidermidis, E.faecalis, and E.faecium colonies were grown on TSA (Tryptone Soya Agar; cat.N. P05012A -OXOID) S.pneumoniae and S.pyogenes colonies were grown on TSASB ((TSA) Agar +5% Sheep Blood; cat.N. PB5012A -OXOID). An inoculum was prepared by making a direct saline suspension of isolated colonies selected from an 18 to 24 hours agar plate incubated at 35±2 ° C. in ambient air. The suspension was adjusted to achieve a turbidity equivalent to a 0.5 McFarland turbidity standard (1 to 2 ×10^8 Colony Forming Units (CFU)) and diluted 200 fold within 15 minutes in broth. (S.aureus, S.epidermidis, E.faecalis, and E.faecium were diluted in CAMHB: Mueller Hinton Broth 2, Cation-Adjusted (cat. N. 90922 Fluka); S.pneumoniae and S.pyogenes were diluted in CAMHB +2.5% lysed horse blood. All broth contained 0.002% polysorbate 80.
(§10) 96-well plates were prepared containing 1 μL of the test compound (at 100× desired test concentration in 100% DMSO); compounds were tested at 8 final concentrations, i.e. 16 μg/mL, 8 μg/mL, 4 μg/mL, 2 μg/mL, 1 μg/mL, 0.5 μg/mL, 0.25 μg/mL, and 0.125 μg/mL. 100 μL of the broth dilution was dispensed in each well plate to have a final bacterial concentration in plate of ˜5×10^5 CFU/mL. The plates were incubated at 35±2° C. in ambient air for 20 hours.

[1] = test system: S. epidermidis (5 isolates); type: cell-based, Staphylococcus epidermidis; conditions: 20 h
Protocol: as §7, §8, §9, §10

[2] = test system: S. pneumoniae (8 isolates); type: cell-based, Streptococcus pneumonia; conditions: 20 h
Protocol: as §7, §8, §9, §10

S. pyogenes (2 isolates) = type: cell-based, Streptococcus pyogenes; conditions: 20 h
Protocol: as §7, §8, §9, §10

E. faecalis (5 isolates) = type: cell-based, Enterococcus faecalis; conditions: 20 h
Protocol: as §7, §8, §9, §10

E. faecium (3 isolates) = type: cell-based, Enterococcus faecium; conditions: 20 h
Protocol: as §7, §8, §9, §10

in vitro = type: cell-based; conditions: human, HepG2 cells
Protocol: Compounds were tested for cytotoxicity to a mammalian cell line HepG2 (Human hepatocyte carcinoma from ECACC (85011430)). Hep G2 cells were seeded into 96-well plates, 7500 cells/well in 100 μl medium (Minimum Essential Medium (Gibco 21090) supplemented with 2 mM L-Glutamine, 1% non-essential amino acids and 10% fetal bovine serum) and incubated for 20 hours at 37° C., 5% CO2. 100 μL of fresh medium containing a test compound or DMSO (for control) at 2× final concentration were added and incubated for 48 hours at 37° C., 5% CO2. The final concentration of DMSO in plate was 1%. At the end of this incubation, 20 μl MTT (Thiazolyl Blue Tetrazolium Bromide) solution 5 mg/ml in H2O (0.5 mg/ml final in well) was added to all wells. Cells were incubated with MTT for 4 hours at 37° C., 5% CO2. After incubation, medium containing MTT was removed; 200 μl of DMSO was added in each well and plates were put on a shaker for 5 minutes. Absorbance was read on a SpectraMax plate reader at 570 nm. Specific absorbance (Specific A570) was calculated by subtracting the mean absorbance values of the blank wells (no HepG2 cells) from each well. Control values were determined from wells containing cells and treated with medium+1% DMSO only (no test compound). % viability was calculated as:
(Specific A570test compound/Specific A570control)×100.

| Compound | MIC E. coli (E.coli) [µg/mL] | MIC ratio Coli/Staph (E.coli) | MIC S. aureus (S.aureus) [µg/mL] | S. Aureus (14) MIC90 (S. aureus (14 isolates)) [µg/mL] | S. epidermidis (MIC90) (5) [1] [µg/mL] | S. pneumoniae (8) MIC90 [2] [µg/mL] | S. pyogenes (2) MIC90 (S. pyogenes (2 isolates)) [µg/mL] | E. faecalis (5) MIC90 (E. faecalis (5 isolates)) [µg/mL] | E. faecium (3) MIC90 (E. faecium (3 isolates)) [µg/mL] | viability at 48 h, 100 µM (in vitro) [%] | MIC C. difficile (C. difficile; anaerobic broth microdilution, read after 44-48 hours, Example 17b) [µg/mL] | MIC B. fragilis (B. fragilis) [µg/mL] | MIC C. difficile (C. difficile) [µg/mL] |
| --- | --- | --- | --- | --- | --- | --- | --- | --- | --- | --- | --- | --- | --- |
| CC[C@H](C)[C@H](NC(=O)[C@@H](Cc1ccccc1)NC)C(=O)N[C@@H](CO)C(=O)N[C@H](CCC(N)=O)C(=O)N[C@@H](C(=O)N[C@H](C(=O)N[C@@H](CO)C(=O)N[C@H]1C(=O)N[C@@H](C)C(=O)N[C@@H](CCCCNC(=N)N)C(=O)N[C@@H]([C@@H](C)CC)C(=O)O[C@H]1C)[C@@H](C)CC)[C@@H](C)CC [Compound 5, H-D-MePhe-Ile-Ser-D-Gln-D-aIle-Ile-Ser-c(D-Thr-Ala-Har-Ile)] | 10 (≈ 7.95 µM) | 77 | 0.13 (≈ 0.103 µM) | 0.25 | ≤0.12 | ≤0.12 | ≤0.12 | 0.5 | 0.5 | 117 | <0.03 to 0.06 | >32 | – |
| CC[C@H](C)[C@H](NC(=O)[C@@H](Cc1ccccc1)NC)C(=O)N[C@@H](CO)C(=O)N[C@H](CCCCN)C(=O)N[C@@H](C(=O)N[C@H](C(=O)N[C@@H](CO)C(=O)N[C@H]1C(=O)N[C@@H](C)C(=O)N[C@@H](CCCCN)C(=O)N[C@@H]([C@@H](C)CC)C(=O)O[C@H]1C)[C@@H](C)CC)[C@@H](C)CC [Compound 14, H-D-MePhe-Ile-Ser-D-Lys-D-aIle-Ile-Ser-c(D-Thr-Ala-Lys-Ile)] (H-[dNMeF]IS[dK][d(aIle)]IS[dT]AKI; ester 8-C) | 4 (≈ 3.29 µM) | 16 | 0.25 (≈ 0.206 µM) | – | – | – | – | – | – | – | – | >32 | 0.06 to 0.12 |
| CC[C@H](C)[C@H](NC(=O)[C@@H](Cc1ccc(Cl)cc1)NC)C(=O)N[C@@H](CO)C(=O)N[C@H](CCC(N)=O)C(=O)N[C@@H](C(=O)N[C@H](C(=O)N[C@@H](CO)C(=O)N[C@H]1C(=O)N[C@@H](C)C(=O)N[C@@H](CCCCNC(=N)N)C(=O)N[C@@H]([C@@H](C)CC)C(=O)O[C@H]1C)[C@@H](C)CC)[C@@H](C)CC [Compound 70, H-D-MePhe(4-Cl)-Ile-Ser-D-Gln-D-aIle-Ile-Ser-c(D-Thr-Ala-Har-Ile)] | >16 | >530 | 0.03 to 0.06 | ≤0.12 | ≤0.12 | ≤0.12 | ≤0.12 | 0.25 | ≤0.12 | 114 | – | >32 | 0.015 to 0.03 |
| CC[C@H](C)[C@H](NC(=O)[C@@H](Cc1ccccc1)NC)C(=O)N[C@@H](Cc1cccc2ccccc12)C(=O)N[C@H](CCC(N)=O)C(=O)N[C@@H](C(=O)N[C@H](C(=O)N[C@@H](CO)C(=O)N[C@H]1C(=O)N[C@@H](C)C(=O)N[C@@H](CCCCNC(=N)N)C(=O)N[C@@H]([C@@H](C)CC)C(=O)O[C@H]1C)[C@@H](C)CC)[C@@H](C)CC [Compound 73, H-D-MePhe-Ile-lNal-D-Gln-D-aIle-Ile-Ser-c(D-Thr-Ala-Har-Ile)] | – | – | – | 0.5 | 0.25 | ≤0.12 | ≤0.12 | 0.5 | 0.25 | 113 | – | – | – |
| CC[C@H](C)[C@H](NC(=O)[C@@H](Cc1ccccc1)NC)C(=O)N[C@@H](CO)C(=O)N[C@H](CCC(N)=O)C(=O)N[C@@H](C(=O)N[C@H](C(=O)N[C@@H](CO)C(=O)N[C@H]1C(=O)N[C@@H](C)C(=O)N[C@@H](CCCCN)C(=O)N[C@@H]([C@@H](C)CC)C(=O)O[C@H]1C)[C@@H](C)CC)[C@@H](C)CC [Lys10-teixobactin] | 16 (≈ 13.2 µM) | 64 | 0.25 (≈ 0.206 µM) | – | – | – | – | – | – | – | – | >32 | 0.12 (≈ 0.0986 µM) |
| CC[C@H](C)[C@H](NC(=O)[C@@H](Cc1ccccc1)NC)C(=O)N[C@@H](CO)C(=O)N[C@H](CCC(N)=O)C(=O)N[C@@H](C(=O)N[C@H](C(=O)N[C@@H](CO)C(=O)N[C@H]1C(=O)N[C@@H](C)C(=O)N[C@@H](CCCNC(=N)N)C(=O)N[C@@H]([C@@H](C)CC)C(=O)O[C@H]1C)[C@@H](C)CC)[C@@H](C)CC [[Arg10]teixobactin, reference compound] | – | – | – | 0.5 | 0.5 | 0.25 | 0.25 | 2 | 2 | 115 | – | – | – |
| CC[C@H](C)[C@H](NC(=O)[C@@H](Cc1ccccc1)NC)C(=O)N[C@@H](CO)C(=O)N[C@H](CCC(N)=O)C(=O)N[C@@H](C(=O)N[C@H](C(=O)N[C@@H](CO)C(=O)N[C@H]1C(=O)N[C@@H](C)C(=O)N[C@@H](CCCCN)C(=O)N[C@@H]([C@@H](C)CC)C(=O)O[C@H]1C)[C@@H](C)CC)[C@@H](C)CC [[Lys10]teixobactin, reference compound] | – | – | – | 0.5 | 0.5 | ≤0.12 | 0.25 | 2 | 1 | 95.6 | – | – | – |
